Experimental findings from the supplement of paper PMC10307832 are described below.

Common to all, as to experiment: relative viability (nuclei count vs DMSO), 5 days (fraction); higher = more cells survive
Compound in assay [1]: COc1cccc2cc(-c3nc([C@H]4CC[C@H](C(=O)O)CC4)n4ncnc(N)c34)[nH]c12 [OSI-027] + N=C(N)NC(=N)NCCc1ccccc1 [Phenformin] (partner 250 µM)
In a few lines: (§1)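 Lung cancer cell lines in 1536-well plates got either a single drug or a fixed anchor-drug dose together with five library-drug doses (not always all listed) in √10 steps, by pin tool, on the day after seeding. Nuclei were counted after 5 days, and relative viability is the treated-to-vehicle ratio of nuclei counts. Values are medians of duplicate plates.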

Compound in assay [2]: CCCS(=O)(=O)Nc1ccc(F)c(C(=O)c2c[nH]c3ncc(-c4ccc(Cl)cc4)cc23)c1F [Vemurafenib] + CS(=O)(=O)CCNCc1ccc(-c2ccc3ncnc(Nc4ccc(OCc5cccc(F)c5)c(Cl)c4)c3c2)o1 [Lapatinib] (partner 2 µM)
In a few lines:
as §1

Compound in assay [3]: COc1cccc2cc(-c3nc([C@H]4CC[C@H](C(=O)O)CC4)n4ncnc(N)c34)[nH]c12 [OSI-027] + Nc1ncn([C@H]2C[C@H](O)[C@@H](CO)O2)c(=O)n1 [Decitabine] (partner 2 µM)
In a few lines:
as §1

Compound in assay [4]: COc1cccc2cc(-c3nc([C@H]4CC[C@H](C(=O)O)CC4)n4ncnc(N)c34)[nH]c12 [OSI-027] + O=C(CCCCCCC(=O)Nc1ccccc1)NO [Vorinostat] (partner 1 µM)
In a few lines:
as §1

As to BEN, the relative viability in assay [1] (first compound 0.01 µM) is 0.248; in assay [1] (first compound 0.03162 µM), 0.27; in assay [1] (first compound 0.1 µM), 0.288; in assay [1] (first compound 0.3162 µM), 0.244; in assay [1] (first compound 1 µM), 0.232; in assay [2] (first compound 0.03162 µM) it was 0.765. The relative viability in assay [2] (first compound 0.1 µM) stood at 0.77; in assay [2] (first compound 0.3162 µM) it was 0.323; in assay [2] (first compound 1 µM), 0.525; in assay [3] (first compound 0.01 µM) it was 0.609; in assay [3] (first compound 0.03162 µM), 0.707; in assay [3] (first compound 0.1 µM), 0.596. Moreover, the relative viability came to 0.513 in assay [3] (first compound 0.3162 µM); 0.483 in assay [3] (first compound 1 µM); 0.557 in assay [4] (first compound 0.01 µM); 0.55 in assay [4] (first compound 0.03162 µM); 0.511 in assay [4] (first compound 0.1 µM); 0.428 in assay [4] (first compound 0.3162 µM). The relative viability in assay [4] (first compound 1 µM) turned out to be 0.297.

Regarding CAL-12T, the relative viability in assay [1] (first compound 0.01 µM) was 0.584; in assay [1] (first compound 0.03162 µM), 0.644; in assay [1] (first compound 0.1 µM), 0.512; in assay [1] (first compound 0.3162 µM), 0.618; in assay [1] (first compound 1 µM) it was 0.355; in assay [2] (first compound 0.03162 µM), 0.63. The relative viability in assay [2] (first compound 1 µM) was found to be 0.618; in assay [4] (first compound 0.01 µM), 1.06; in assay [4] (first compound 0.03162 µM), 0.585; in assay [4] (first compound 0.1 µM) it was 0.68; in assay [4] (first compound 0.3162 µM), 0.535; in assay [4] (first compound 1 µM), 0.321.

Consider COR-L23, for which the relative viability amounted to 0.53 in assay [1] (first compound 0.01 µM); 0.445 in assay [1] (first compound 0.03162 µM); 0.476 in assay [1] (first compound 0.1 µM); 0.445 in assay [1] (first compound 0.3162 µM); 0.206 in assay [1] (first compound 1 µM); 1.01 in assay [2] (first compound 0.03162 µM). Also, the relative viability is 0.91 in assay [2] (first compound 0.1 µM); 0.684 in assay [2] (first compound 0.3162 µM); 0.98 in assay [2] (first compound 1 µM); 0.482 in assay [3] (first compound 0.01 µM); 0.474 in assay [3] (first compound 0.03162 µM); 0.379 in assay [3] (first compound 0.1 µM). Besides, the relative viability is 0.372 in assay [3] (first compound 0.3162 µM); 0.236 in assay [3] (first compound 1 µM); 0.524 in assay [4] (first compound 0.01 µM); 0.436 in assay [4] (first compound 0.03162 µM); 0.403 in assay [4] (first compound 0.1 µM); 0.408 in assay [4] (first compound 0.3162 µM). Further, the relative viability in assay [4] (first compound 1 µM) was determined as 0.297.

As to COR-L 105, the relative viability in assay [1] (first compound 0.01 µM) was found to be 0.47; in assay [1] (first compound 0.03162 µM), 0.466; in assay [1] (first compound 0.1 µM), 0.479; in assay [1] (first compound 0.3162 µM) it was 0.351; in assay [1] (first compound 1 µM), 0.359; in assay [2] (first compound 0.03162 µM) it was 0.348. The relative viability came out at 0.32 in assay [2] (first compound 0.3162 µM); 0.373 in assay [2] (first compound 1 µM); 0.739 in assay [3] (first compound 0.01 µM); 0.56 in assay [3] (first compound 0.03162 µM); 0.603 in assay [3] (first compound 0.1 µM); 0.639 in assay [3] (first compound 0.3162 µM). For the same cell line, the relative viability was 0.647 in assay [3] (first compound 1 µM); 0.552 in assay [4] (first compound 0.01 µM); 0.727 in assay [4] (first compound 0.03162 µM); 0.879 in assay [4] (first compound 0.1 µM); 0.617 in assay [4] (first compound 0.3162 µM); 0.605 in assay [4] (first compound 1 µM).

On to Calu-6, for which the relative viability in assay [2] (first compound 0.03162 µM) worked out at 1.02; in assay [2] (first compound 0.1 µM), 1.06; in assay [2] (first compound 0.3162 µM), 1.01; in assay [2] (first compound 1 µM), 0.924.

Turning to ChaGo-K-1, the relative viability was determined as 0.43 in assay [1] (first compound 0.01 µM); 0.499 in assay [1] (first compound 0.03162 µM); 0.436 in assay [1] (first compound 0.1 µM); 0.409 in assay [1] (first compound 0.3162 µM); 0.323 in assay [1] (first compound 1 µM); 0.518 in assay [3] (first compound 0.01 µM). In addition, the relative viability amounted to 0.526 in assay [3] (first compound 0.03162 µM); 0.497 in assay [3] (first compound 0.1 µM); 0.522 in assay [3] (first compound 0.3162 µM); 0.45 in assay [3] (first compound 1 µM); 0.732 in assay [4] (first compound 0.01 µM); 0.815 in assay [4] (first compound 0.03162 µM). In addition, the relative viability in assay [4] (first compound 0.1 µM) was 0.709; in assay [4] (first compound 0.3162 µM) it was 0.698; in assay [4] (first compound 1 µM), 0.581.
